Test results: US20220409620A1, “REDUCING IMMUNOGENICITY TO PEGLOTICASE” (Horizon Pharma Rheumatology LLC, priority 2016, published 2022)

Tested on: adult patients with uncontrolled gout
Assay: Serum uric acid (sUA) levels and sUA responder rate, open-label study of pegloticase with MTX (MIRROR OL)
Type: in vivo, human
Conditions: mITT Population
Method: The primary objective is to estimate the response rate during Month 6 (Weeks 20, 22, and 24), as measured by the sustained normalization of serum uric acid (SUA) to <6 mg/dL for at least 80% of the time during Month 6 in subjects receiving KXX with MTX.
The primary efficacy outcome endpoint is the sustained normalization of SUA to <6 mg/dL for at least 80% of the time during month 6 (weeks 20, 22, and 24) in subjects receiving KXX with MTX. […] Participants who achieve this endpoint were classified as “responders.” Serum uric acid (SUA) responders may also be defined as participants achieving and maintaining SUA <6 mg/dL for at least 80% of the time during Month 6 (Weeks 20, 22, and 24).
Blood samples may be collected prior to each pegloticase infusion for measurement of SUA levels using the Beckman Coulter AU System Uric Acid procedure. Participants were declared “non-responders” if there were SUA measures >6 mg/dL at 2 consecutive study visits beginning with the week 2 visit. […] This assumption and subsequent discontinuation of pegloticase was consistent with the protocol of large phase III randomized controlled trials and the product label. A formal stopping rule was 2 occasions of SUA levels of greater than 6 mg/dL.
Clinical Chemistry—Blood samples were collected prior to each pegloticase infusion for measurement of SUA levels (primary efficacy parameter) using the Beckman Coulter AU System Uric Acid procedure. In this procedure uric acid is converted to hydrogen peroxide. Hydrogen peroxide reacts with reagent to produce a chromophore which is read bichromatically at 660/800 nm. The amount of dye formed is proportional to the uric acid concentration in the sample.
Serum samples for measurement of SUA levels were collected at the Screening Visit, the Week −4 Visit (prior to the first dose of MTX), and the Week −2 Visit during the MTX Run-in Period; within 48 hours prior to each pegloticase infusion and after the end of each pegloticase infusion prior to discharge from the site during the Pegloticase+IMM Period; at the non-infusion Week 52/End of Study/Early Termination Visits and at the Post Treatment 3 and 6 Month Follow-up Visits. Additional serum samples for SUA levels were collected at optional non-infusion (Frequent Sampling) Visits at Weeks 1 and 7. […] Subjects with SUA level >6 mg/dL at 2 consecutive visits beginning at Week 2 visit discontinued treatment, completed the End of Pegloticase Infusion Visit procedures within 2 weeks and continued the subject visits according to the protocol (without treatment).
Efficacy analyses were performed using the modified intention-to-treat (mITT) population, defined as all enrolled subjects who received ≥1 dose of pegloticase. The proportion of Month 6 responders was summarized, along with a 95% confidence interval for the proportion. The proportion of Month 3 and overall (Months 3 and 6 combined) responders was analyzed similarly.
A subject was declared a non-responder if the subject had SUA level >6 mg/dL at 2 consecutive study visits beginning with the Week 2 Visit. In addition, a subject who withdraws from study treatment for any reason after the first dose of pegloticase in the KXX+MTX Period and prior to Month 6 (for the primary endpoint) or Month 3 (for the secondary endpoint) was considered a non-responder if SUA values were not collected at the planned time points.
Patients were administered oral MTX (15 mg/week) and folate (1 mg/day) 4 weeks prior to the first pegloticase infusion (Day 1) and throughout the pegloticase treatment period. Blood was drawn prior to each infusion to measure sUA level, monitor clinical parameters, and examine for ADA development. All patients followed typical IR prophylaxis protocols (fexofenadine one day before and the morning of each infusion and acetaminophen and IV corticosteroid the morning of each infusion).

Substance: pegloticase
- Serum Uric Acid, Observed, Mean (SD) (Week 34 - Pre-Infusion): 0.82 (1.046) mg/dL
- Serum Uric Acid, Observed, Median (Week 34 - Pre-Infusion): 0.30 mg/dL
- sUA <6 mg/dL, n (%) (Week 34 - Pre-Infusion): 10 (100%)
- Serum Uric Acid, Change from Baseline, Mean (SD) (Week 36 - Post-Infusion): −9.38 (3.799) mg/dL
- Serum Uric Acid, Change from Baseline, Median (Week 36 - Post-Infusion): -9.20 mg/dL
- Serum Uric Acid, Observed, Mean (SD) (Week 36 - Post-Infusion): 0.30 (0.000) mg/dL
- Serum Uric Acid, Observed, Median (Week 36 - Post-Infusion): 0.30 mg/dL
- sUA <6 mg/dL, n (%) (Week 36 - Post-Infusion): 6 (100%)
- Serum Uric Acid, Change from Baseline, Mean (SD) (Week 36 - Pre-Infusion): −7.90 (4.094) mg/dL
- Serum Uric Acid, Change from Baseline, Median (Week 36 - Pre-Infusion): -8.60 mg/dL
- Serum Uric Acid, Observed, Mean (SD) (Week 36 - Pre-Infusion): 1.58 (2.425) mg/dL
- Serum Uric Acid, Observed, Median (Week 36 - Pre-Infusion): 0.30 mg/dL
- sUA <6 mg/dL, n (%) (Week 36 - Pre-Infusion): 8 (88.9%)
- Serum Uric Acid, Change from Baseline, Mean (SD) (Week 38 - Pre-Infusion): −8.41 (5.229) mg/dL
- Serum Uric Acid, Change from Baseline, Median (Week 38 - Pre-Infusion): -8.60 mg/dL
- Serum Uric Acid, Observed, Mean (SD) (Week 38 - Pre-Infusion): 0.93 (1.583) mg/dL
- Serum Uric Acid, Observed, Median (Week 38 - Pre-Infusion): 0.30 mg/dL
- sUA <6 mg/dL, n (%) (Week 38 - Pre-Infusion): 5 (100%)
- Serum Uric Acid, Change from Baseline, Mean (SD) (Week 40 - Pre-Infusion): −11.30 (3.686) mg/dL
- Serum Uric Acid, Change from Baseline, Median (Week 40 - Pre-Infusion): -9.80 mg/dL
- Serum Uric Acid, Observed, Mean (SD) (Week 40 - Pre-Infusion): 0.30 (0.000) mg/dL
- Serum Uric Acid, Observed, Median (Week 40 - Pre-Infusion): 0.30 mg/dL
- sUA <6 mg/dL, n (%) (Week 40 - Pre-Infusion): 3 (100%)
- Serum Uric Acid, Change from Baseline, Mean (SD) (Week 42 - Pre-Infusion): −11.30 (3.686) mg/dL
- Serum Uric Acid, Change from Baseline, Median (Week 42 - Pre-Infusion): -9.80 mg/dL
- Serum Uric Acid, Observed, Mean (SD) (Week 42 - Pre-Infusion): 0.30 (0.000) mg/dL
- Serum Uric Acid, Observed, Median (Week 42 - Pre-Infusion): 0.30 mg/dL
- sUA <6 mg/dL, n (%) (Week 42 - Pre-Infusion): 3 (100%)
- Serum Uric Acid, Change from Baseline, Mean (SD) (Week 44 - Pre-Infusion): −10.55 (4.625) mg/dL
- Serum Uric Acid, Change from Baseline, Median (Week 44 - Pre-Infusion): -9.80 mg/dL
- Serum Uric Acid, Observed, Mean (SD) (Week 44 - Pre-Infusion): 1.05 (1.305) mg/dL
- Serum Uric Acid, Observed, Median (Week 44 - Pre-Infusion): 0.30 mg/dL
- sUA <6 mg/dL, n (%) (Week 44 - Pre-Infusion): 3 (100%)
- Serum Uric Acid, Change from Baseline, Mean (SD) (Week 46 - Pre-Infusion): −12.65 (4.031) mg/dL
- Serum Uric Acid, Change from Baseline, Median (Week 46 - Pre-Infusion): -12.65 mg/dL
- Serum Uric Acid, Observed, Mean (SD) (Week 46 - Pre-Infusion): 0.30 (0.000) mg/dL
- Serum Uric Acid, Observed, Median (Week 46 - Pre-Infusion): 0.30 mg/dL
- sUA <6 mg/dL, n (%) (Week 46 - Pre-Infusion): 2 (100%)
- Serum Uric Acid, Change from Baseline, Mean (SD) (Week 48 - Post-Infusion): −10.33 (4.922) mg/dL
- Serum Uric Acid, Change from Baseline, Median (Week 48 - Post-Infusion): -9.80 mg/dL
- Serum Uric Acid, Observed, Mean (SD) (Week 48 - Post-Infusion): 1.60 (2.252) mg/dL
- Serum Uric Acid, Observed, Median (Week 48 - Post-Infusion): 0.30 mg/dL
- sUA <6 mg/dL, n (%) (Week 48 - Post-Infusion): 3 (100%)
- Serum Uric Acid, Change from Baseline, Mean (SD) (Week 48 - Pre-Infusion): −12.65 (4.031) mg/dL
- Serum Uric Acid, Change from Baseline, Median (Week 48 - Pre-Infusion): -12.65 mg/dL
- Serum Uric Acid, Observed, Mean (SD) (Week 48 - Pre-Infusion): 0.30 (0.000) mg/dL
- Serum Uric Acid, Observed, Median (Week 48 - Pre-Infusion): 0.30 mg/dL
- sUA <6 mg/dL, n (%) (Week 48 - Pre-Infusion): 2 (100%)
- Serum Uric Acid, Change from Baseline, Mean (SD) (Week 50 - Post-Infusion): −10.57 (4.598) mg/dL
- Serum Uric Acid, Change from Baseline, Median (Week 50 - Post-Infusion): -9.80 mg/dL
- Serum Uric Acid, Observed, Mean (SD) (Week 50 - Post-Infusion): 1.37 (1.848) mg/dL
- Serum Uric Acid, Observed, Median (Week 50 - Post-Infusion): 0.30 mg/dL
- sUA <6 mg/dL, n (%) (Week 50 - Post-Infusion): 3 (100%)
- Serum Uric Acid, Change from Baseline, Mean (SD) (Week 50 - Pre-Infusion): −12.65 (4.031) mg/dL
- Serum Uric Acid, Change from Baseline, Median (Week 50 - Pre-Infusion): -12.65 mg/dL
- Serum Uric Acid, Observed, Mean (SD) (Week 50 - Pre-Infusion): 0.30 (0.000) mg/dL
- Serum Uric Acid, Observed, Median (Week 50 - Pre-Infusion): 0.30 mg/dL
- sUA <6 mg/dL, n (%) (Week 50 - Pre-Infusion): 2 (100%)
- Serum Uric Acid, Change from Baseline, Mean (SD) (Week 52/ET): −12.65 (4.031) mg/dL
- Serum Uric Acid, Change from Baseline, Median (Week 52/ET): -12.65 mg/dL
- Serum Uric Acid, Observed, Mean (SD) (Week 52/ET): 0.30 (0.000) mg/dL
- Serum Uric Acid, Observed, Median (Week 52/ET): 0.30 mg/dL
- sUA <6 mg/dL, n (%) (Week 52/ET): 2 (100%)
